The nature of data set [1]: Acute toxicity in white mice after oral application of a single dose. Format: in vivo. The conditions noted are these: mouse, in vivo, observation time 14 days. The method, then:
(§1) The acute toxicity of the compounds was determined in white mice (observation time: 14 days) after oral application of a single dose: […]

The test system of the next data set is white mice. The data set is described as above. It counts as in vivo. The following applies: observation time 14 days, at the dose given in the same line. The method, then:
as §1

Data set [2] deals with thrombocyte aggregation in platelet-rich plasma. The experiment in a line: Determination of effect on platelet aggregation by the method of Born and Cross (collagen-induced thrombocyte aggregation). Format: cell-based. The conditions noted are these: 10 min, platelet-rich plasma of healthy human donors, 10 min incubation at 37° C., read-out: ED50 (dose leading to a 50% inhibition of aggregation compared with the control group). The method, then: 1. Determination of effect on platelet aggregation by the method of Born and Cross, J. Physiol. 170, 397 (1964):
The thrombocyte aggregation was measured in the platelet-rich plasma of healthy human donors. The course of change of the optical density of the platelet suspension was measured and recorded photometrically after the addition of commercial collagen containing 1 mg of collagen fibrils per ml. From the angle of inclination of the density curve, the rate of aggregation was estimated (Vmax). The optical density (O.D.) was taken as the point on the curve where the most light was transmitted.
As small doses of collagen as possible were chosen, but sufficient to give irreversible aggregation. To provoke maximum aggregation, about 0.01 ml of the collagen solution was added to 1 ml of platelet-rich plasma.
The test compounds were incubated at 37° C. for 10 minutes with the plasma before aggregation was provoked. The compounds were dissolved with a small quantity of hydrochloric acid or dimethyl formamide, and the solution was diluted to the desired final concentration with distilled water.
The dose leading to a 50% inhibition of aggregation compared with the control group (E D50) was determined.

Bounds are passed on as bounds.

In the case of `Nc1n[nH]c2nc(N3CCCCC3)cc(-c3ccccc3)c12` [C, 3-Amino-4-phenyl-6-piperidino-1H-pyrazolo[3,4-b]pyridine], in data set [1], the median lethal dose (LD50) at 336 h was > 250 mg/kg. For the same compound, the “animals died (mortality in acute toxicity test)” value (“animals died” for short) with white mice is on record as 0 out of 10. In addition, in data set [2], the IC50 was found to be 0.4 µM.
`Nc1n[nH]c2nc(N3CCCCCC3)cc(-c3ccc(F)cc3)c12` [H, 3-Amino-4-(4'-fluoro-phenyl)-6-hexamethyleneimino-1H-pyrazolo[3,4-b]pyridine]: the IC50 in data set [2] worked out at 0.3 µM.
Consider `Nc1n[nH]c2nc(N3CCSCC3)cc(-c3ccccc3)c12` [B, 3-Amino-4-phenyl-6-thiomorpholino-1H-pyrazolo[3,4-b]pyridine], for which, in data set [1], the 50% lethal dose (LD50) at 336 h was > 250 mg/kg. Also, the “animals died” value in the data set with white mice is 0 out of 10. Also, the IC50 in data set [2] was determined as 0.04 µM.
As for `CC1CCCN(c2cc(-c3ccccc3)c3c(N)n[nH]c3n2)C1` (stereo not shown) [D, 3-Amino-6-(3-methyl-piperidino)-4-phenyl-1H-pyrazolo[3,4-b]pyridine], the LD50 at 336 h in data set [1] was > 250 mg/kg. In addition, in the data set with white mice, the “animals died” value is 0 out of 10. In addition, the IC50 in data set [2] is 0.3 µM.
On the same counts, the results for `CCN(CC)c1cc(-c2ccccc2)c2c(N)n[nH]c2n1` [F, 3-Amino-6-diethylamino-4-phenyl-1H-pyrazolo[3,4-b]pyridine] are > 1500 mg/kg, 0 out of 10 and 0.3 µM.
`COc1ccc(-c2cc(N3CCCCC3)nc3[nH]nc(N)c23)cc1` [G, 3-Amino-4-(4'-methoxy-phenyl)-6-piperidino-1H-pyrazolo [3,4-b]pyridine]: in data set [1], the LD50 at 336 h was > 1500 mg/kg. Further, in the data set on white mice, the “animals died” value is on record as 0 out of 10. Also, the IC50 in data set [2] is 1 µM.
On the same counts, the results for `Nc1n[nH]c2nc(N3CCCCCC3)cc(-c3ccccc3)c12` [Compound E, 3-Amino-6-hexamethyleneimino-4-phenyl-1H-pyrazolo[3,4-b]pyridine] are > 5000 mg/kg, 3 out of 10 and 0.04 µM.
For `Nc1cc(-c2ccccc2)c2c(N)n[nH]c2n1` [I, 3,6-Diamino-4-phenyl-1H-pyrazolo[3,4-b]pyridine, reference compound], in that order: > 1500 mg/kg, 0 out of 10 and 100 µM.
For `Nc1n[nH]c2nc(N3CCOCC3)cc(-c3ccccc3)c12` [A, 3-Amino-6-morpholino-4-phenyl-1H-pyrazolo[3,4-b]pyridine], in that order: > 250 mg/kg, 0 out of 10 and 1 µM.

As usually defined, the LD50 is the dose at which mortality reaches 50%. Low readings indicate a more toxic substance, high ones a less toxic substance.

(Values after patent publication US4182887A, “3-Amino-4-phenyl-1H-pyrazolo[3,4-b]pyridines and salts thereof” (Boehringer Ingelheim GmbH, priority 1976, dated 1980).)
